Measured values reported in US9062041B2 (Bayer Intellectual Property GmbH, priority 2011, dated 2015).

Assays:
[1] = system: cumulus-oocyte complexes; assay: Cumulus expansion test in vitro; format: cell-based, mice (strain: B6D2F1); conditions: for inhibition at 1 µM / inhibition at 0.5 µM: Mus musculus, 0.3 μM PGE2 for stimulation; for inhibition at 1 µM: read-out: % reduction at 1 μM (reduction in the cumulus expansion); for inhibition at 0.5 µM: read-out: % reduction at 0.5 μm (reduction in the cumulus expansion)
Method: 4.2. Cumulus Expansions Test In Vitro In immature female mice (strain: B6D2F1 from Charles River), at an age of 14-18 days, the folliculogenesis was induced by a single administration (intraperitoneal) of 10 IU of PMSG (pregnant mare serum gonadotropin; Sigma G-4877, Lot 68H0909). 47-50 hours after the injection, the ovaries were removed and the cumulus-oocyte complexes removed. At this stage, the cumulus complex is not yet expanded. The cumulus-oocyte complexes were now incubated for 20-24 hours with prostaglandin E2 (PGE) (0.3 μM), vehicle control (ethanol) or test substances. Medium: alpha-MEM medium with 0.1 mM IBMX, pyruvate (0.23 mM), glutamine (2 mM), pen/strep 100 IU/ml pen. and 100 μg/ml strep.), HSA (8 mg/ml) and foetal bovine serum (FBS, 10%). The cumulus expansion was then established through the subdivision into four stages (after Vanderhyden et al. Dev Biol. 1990 August; 140(2):307-317).

[2] = target: EP4 subtype of the human PGE2 receptor (Homo sapiens, UniProt P35408); assay: cAMP antagonism test on the human EP4 receptor (HTRF cAMP detection); format: cell-based; conditions: selectivity towards hEP4, IC50 measured by cAMP antagonism test
Method in brief: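 Competitive HTRF cAMP read-out (cAMP-d2 vs Eu-cryptate anti-cAMP antibody, 665/620 nm ratio) on lysed human EP4 cells. Compound (0.8 nM–16.5 μM) applied 20 min at RT before 60 min PGE2 challenge (3× solution 0.3 nM, IBMX present); 20 min lysis precedes reading.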

[3] = target: EP2 subtype of the human PGE2 receptor (Homo sapiens, UniProt P43116); assay: cAMP antagonism test on the human EP2 receptor (HTRF cAMP detection); format: cell-based; conditions: hEP2 receptor, read-out: Antagonism hEP2 IC50
Method in brief: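 Read-out is a competitive HTRF for cAMP: lysate cAMP displaces cAMP-d2 from Eu cryptate-labelled antibody, and antagonism raises the 665/620 nm ratio. Compound (0.8 nM–16.5 μM) added to EP2 cells 20 min at RT before 60 min PGE2 challenge (3× stock 1.5 nM) with IBMX, followed by 20 min lysis.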

[4] = target: T1, human PGD receptor (Homo sapiens, UniProt Q13258); assay: cAMP antagonism test on the human prostaglandin D receptor (HTRF cAMP detection); format: cell-based; conditions: selectivity towards hDP, IC50 measured by cAMP antagonism test
T1 sequence (Q13258 1-359): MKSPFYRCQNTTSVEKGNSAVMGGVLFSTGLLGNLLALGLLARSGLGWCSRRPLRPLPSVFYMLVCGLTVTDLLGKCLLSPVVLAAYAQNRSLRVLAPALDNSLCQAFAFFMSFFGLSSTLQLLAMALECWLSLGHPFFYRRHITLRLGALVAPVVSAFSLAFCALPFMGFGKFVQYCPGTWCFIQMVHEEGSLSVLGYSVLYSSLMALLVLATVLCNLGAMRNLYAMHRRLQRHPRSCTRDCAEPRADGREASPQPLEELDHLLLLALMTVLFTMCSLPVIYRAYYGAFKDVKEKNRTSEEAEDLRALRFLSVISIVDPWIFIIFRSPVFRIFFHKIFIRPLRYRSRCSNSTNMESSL
Method in brief: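 HTRF competition read-out (665/620 nm ratio ×10000), where higher FRET means less cAMP, i.e. antagonism. Compounds (0.8 nM–16.5 μM) were preincubated 20 min at RT with cells and cAMP-d2, PGD2 (3× solution, 6 nM) in IBMX-containing PBS added for 30 min at RT, then cells lysed 20 min.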

EP4 subtype of the human PGE2 receptor, sequence (P35408 whole entry): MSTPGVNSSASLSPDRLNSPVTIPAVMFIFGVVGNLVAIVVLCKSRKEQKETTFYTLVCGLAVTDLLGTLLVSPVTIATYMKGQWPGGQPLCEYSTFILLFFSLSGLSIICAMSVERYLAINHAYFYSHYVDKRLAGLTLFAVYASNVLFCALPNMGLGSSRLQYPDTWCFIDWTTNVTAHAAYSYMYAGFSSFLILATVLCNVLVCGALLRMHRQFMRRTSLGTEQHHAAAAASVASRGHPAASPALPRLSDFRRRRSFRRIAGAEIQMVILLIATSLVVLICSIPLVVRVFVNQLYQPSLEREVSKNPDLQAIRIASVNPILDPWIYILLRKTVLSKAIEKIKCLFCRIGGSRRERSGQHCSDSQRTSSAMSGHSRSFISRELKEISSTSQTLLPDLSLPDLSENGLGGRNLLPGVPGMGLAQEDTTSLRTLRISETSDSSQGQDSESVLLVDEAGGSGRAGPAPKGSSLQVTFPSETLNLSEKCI
EP2 subtype of the human PGE2 receptor, sequence (P43116 whole entry): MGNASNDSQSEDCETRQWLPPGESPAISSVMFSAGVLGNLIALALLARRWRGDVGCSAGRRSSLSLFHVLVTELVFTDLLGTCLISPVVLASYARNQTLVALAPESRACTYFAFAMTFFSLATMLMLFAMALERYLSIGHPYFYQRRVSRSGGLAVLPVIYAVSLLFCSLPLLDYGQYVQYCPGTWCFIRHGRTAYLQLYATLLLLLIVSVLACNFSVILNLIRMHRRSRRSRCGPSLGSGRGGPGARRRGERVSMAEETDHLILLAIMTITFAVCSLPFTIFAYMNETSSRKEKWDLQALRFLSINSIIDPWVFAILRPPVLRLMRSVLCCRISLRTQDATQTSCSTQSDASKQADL

Structure (SMILES)	Selectivity hEP2/hEP4 [2]	IC50 [3]	Selectivity hEP2/hDP [4]	inhibition at 1 µM [1]	inhibition at 0.5 µM [1]	suppression of the cumulus expansion ([1]; concentration of 100-200 μM, PGE2 0.3 μM)
CC(C)Oc1ccc2c(=O)c3cc(C(=O)O)ccc3oc2c1 [AH6809, reference compound]	–	–	–	–	–	ca. 30%
COCCNC(=O)c1ccc2nn(CC3CCN(C(=O)c4ccc(-c5ccc(F)cc5)cc4)CC3)cc2c1C [Example 5, 2-({1-[(4′-fluorobiphenyl-4-yl)carbonyl]piperidin-4-yl}methyl)-N-(2-methoxy-ethyl)-4-methyl-2H-indazol-5-carboxamide]	xxx (xxx > 100)	5.11 nM	xxx (xxx > 100)	59%	56%	–
Cc1c(C(=O)NCC2CC2)ccc2nn(CC3CCN(C(=O)c4ccc(Cl)cc4)CC3)cc12 [Example 402, 2-{[1-(4-chlorobenzoyl)piperidin-4-yl]methyl}-N-(cyclopropylmethyl)-4-methyl-2H-indazol-5-carboxamide]	xxx (xxx > 100)	77.7 nM	xxx (xxx > 100)	–	–	–
COCCNC(=O)c1cc2cn(CC3CN(C(=O)c4ccc(C5CC5)cc4)C3)nc2cc1C [Example 200, 2-{[1-(4-cyclopropylbenzoyl)azetidin-3-yl]methyl}-N-(2-methoxyethyl)-6-methyl-2H-indazol-5-carboxamide]	xxx (xxx > 100)	15.1 nM	xxx (xxx > 100)	–	–	–
Cc1c(C(=O)NCCS(C)(=O)=O)ccc2nn(CC3CCN(C(=O)c4ccc(-c5ccc(F)cc5)cc4)CC3)cc12 [Example 408, 2-({1-[(4′-fluorobiphenyl-4-yl)carbonyl]piperidin-4-yl}methyl)-N-(2-mesylethyl)-4-methyl-2H-indazol-5-carboxamide]	xxx (xxx > 100)	23.5 nM	xxx (xxx > 100)	–	–	–
Cc1c(C(=O)NCCCO)ccc2nn(CC3CCN(C(=O)c4ccc(-c5ccc(F)cc5)cc4)CC3)cc12 [Example 409, 2-({1-[(4′-fluorobiphenyl-4-yl)carbonyl]piperidin-4-yl}methyl)-N-(3-hydroxypropyl)-4-methyl-2H-indazol-5-carboxamide]	xxx (xxx > 100)	31.8 nM	xxx (xxx > 100)	–	–	–
Cc1cc2nn(CC3CCN(C(=O)c4ccc(C(F)(F)F)cc4F)CC3)cc2cc1C(=O)NCCN1CCOCC1 [Example 80, 2-({1-[2-fluoro-4-(trifluoromethyl)-benzoyl]piperidin-4-yl}-methyl)-6-methyl-N-(2-morpholinoethyl)-2H-indazol-5-carboxamide]	xxx (xxx > 100)	85.9 nM	xxx (xxx > 100)	–	–	–
COCCNC(=O)c1ccc2nn(CC3CCN(C(=O)c4ccc(OC(C)(C)C)cc4)CC3)cc2c1C [Example 2, 2-({1-[4-tert-(butoxy)benzoyl]piperidin-4-yl}methyl)-N-(2-methoxyethyl)-4-methyl-2H-indazol-5-carboxamide]	xxx (xxx > 100)	21.7 nM	xxx (xxx > 100)	–	–	–
COCCNC(=O)c1ccc2nn(CC3CCN(C(=O)c4nc(-c5ccccc5)no4)CC3)cc2c1C [Example 352, N-(2-methoxyethyl)-4-methyl-2-({1-[(3-phenyl-1,2,4-oxadiazol-5-yl)carbonyl]-piperidin-4-yl}methyl)-2H-indazol-5-carboxamide]	xxx (xxx > 100)	21.7 nM	xxx (xxx > 100)	–	–	–
CCOc1c(C(=O)NCCOC)ccc2nn(CC3CCN(C(=O)c4ccc(Cl)cc4)CC3)cc12 [Example 274, 2-{[1-(4-chlorobenzoyl)piperidin-4-yl]methyl}-4-ethoxy-N-(2-methoxyethyl)-2H-indazol-5-carboxamide]	xxx (xxx > 100)	44.6 nM	xxx (xxx > 100)	–	–	–

Now from value to compound, other results behind:

Selectivity hEP2/hEP4 [2]	IC50 [3]	Selectivity hEP2/hDP [4]	Structure (SMILES)	inhibition at 1 µM [1]	inhibition at 0.5 µM [1]	suppression of the cumulus expansion ([1]; concentration of 100-200 μM, PGE2 0.3 μM)
xxx (xxx > 100)	13.9 nM	xxx (xxx > 100)	Cc1c(C(=O)NCC(F)(F)F)ccc2nn(CC3CCN(C(=O)c4ccc(Oc5ccc(C(F)(F)F)nc5)cc4)CC3)cc12 [Example 303, 4-methyl-N-(2,2,2-trifluoroethyl)-2-{[1-(4-{[6-(trifluoromethyl)pyridin-3-yl]-oxy}benzoyl)piperidin-4-yl]methyl}-2H-indazol-5-carboxamide]	47%	38%	–
xxx (xxx > 100)	6.26 nM	xxx (xxx > 100)	COCCNC(=O)c1ccc2nn(CC3CCN(C(=O)c4ccc(Oc5ccc(C(F)(F)F)cn5)cc4)CC3)cc2c1C [Example 345, N-(2-methoxyethyl)-4-methyl-2-{[1-(4-{[5-(trifluoromethyl)pyridin-2-yl]oxy}-benzoyl)piperidin-4-yl]methyl}-2H-indazol-5-carboxamide]	36%	18%	–
xx (xx: 10-100)	485 nM	xx (xx: 10-100)	COc1ccc(-c2ccc(C(=O)N3CCC(Cn4cc5c(C)c(C(=O)NCC(F)(F)F)ccc5n4)CC3)cc2)nc1 [Example 326, 2-({1-[4-(5-methoxypyridin-2-yl)benzoyl]piperidin-4-yl}methyl)-4-methyl-N-(2,2,2-trifluoroethyl)-2H-indazol-5-carboxamide]	–	–	–
xxx (xxx > 100)	4.17 nM	xxx (xxx > 100)	COCCNC(=O)c1ccc2nn(CC3CCN(C(=O)c4ccc(Oc5ccc(C)cc5)cc4)CC3)cc2c1C [Example 15, N-(2-methoxyethyl)-4-methyl-2-({1-[4-(4-methylphenoxy)-benzoyl]piperidin-4-yl}methyl)-2H-indazol-5-carboxamide]	–	–	–
xxx (xxx > 100)	29.7 nM	xxx (xxx > 100)	Cc1c(C(=O)NCC(F)(F)F)ccc2nn(CC3CCN(C(=O)c4cc5ccccc5[nH]4)CC3)cc12 [Example 296, 2-{[1-(1H-Indol-2-ylcarbonyl)piperidin-4-yl]methyl}-4-methyl-N-(2,2,2-trifluoroethyl)-2H-indazol-5-carboxamide]	–	–	–
xxx (xxx > 100)	30.6 nM	xxx (xxx > 100)	Cc1c(C(=O)NCC(F)(F)F)ccc2nn(CC3CCN(C(=O)c4ccc(Oc5cccc(F)c5)cc4)CC3)cc12 [Example 307, 2-({1-[4-(3-fluorophenoxy)benzoyl]piperidin-4-yl}methyl)-4-methyl-N-(2,2,2-trifluoroethyl)-2H-indazol-5-carboxamide]	–	–	–
xxx (xxx > 100)	90.4 nM	xxx (xxx > 100)	Cc1c(C(=O)NCCO)ccc2nn(CC3CCN(C(=O)c4ccc(-c5ccc(F)cc5)cc4)CC3)cc12 [Example 410, 2-({1-[(4′-fluorobiphenyl-4-yl)carbonyl]piperidin-4-yl}methyl)-N-(2-hydroxyethyl)-4-methyl-2H-indazol-5-carboxamide]	–	–	–
xxx (xxx > 100)	118 nM	xxx (xxx > 100)	Cc1c(C(=O)NCC(F)(F)F)ccc2nn(CC3CN(C(=O)c4ccc(Oc5ccc(C(F)(F)F)cn5)cc4)C3)cc12 [Example 177, 4-methyl-N-(2,2,2-trifluoroethyl)-2-{[1-(4-{[5-(trifluoromethyl)pyridin-2-yl]oxy}benzoyl)azetidin-3-yl]methyl}-2H-indazol-5-carboxamide]	–	–	–
